Assay results from patent US20230060040A1, “USE OF TRANSFERRIN, TRANSFERRIN RECEPTOR AND ANTIBODY THEREOF IN PREPARATION OF ANTI-SARS-CoV-2 DRUG” (KUNMING INSTITUTE OF ZOOLOGY, CHINESE ACADEMY OF SCIENCES, priority 2020, published 2023).
Where “and” joins values, the source holds several entries; their conditions need not be identical. Identical values can stand only once. Like-named read-outs stand apart in the source and are kept apart here.

Legend:
SARS-CoV-2 [1] = type: cell-based; conditions: read-out: EC50 by qRT-PCR
SARS-CoV-2 [2] = type: cell-based
SARS-CoV-2 [3] = type: cell-based; conditions: Vero E6 cells, different concentrations, 48 h
SARS-CoV-2 spike protein = SARS-CoV-2 spike protein (Severe acute respiratory syndrome coronavirus 2, UniProt P0DTC2); conditions: SPR, spike protein 3.90625-250 nM, immobilized transferrin receptor

## transferrin: main iron-containing plasma single-chain glycoprotein, purchased from Sigma, catalog number T4382
SARS-CoV-2 [1]
  EC50: 160 nM
SARS-CoV-2 [2]; read-out: EC50 by CPE analysis
  EC50: 125 nM
SARS-CoV-2 [2]; read-out: EC50 calculated by CPE
  EC50: 80 nM and 50 nM
SARS-CoV-2 [3]
  inhibition of SARS-CoV-2 infection: could inhibit SARS-CoV-2 infection

## transferrin receptor: transferrin receptor protein purchased from Sino Biological, catalog number 11020-H07H
SARS-CoV-2 [1]
  EC50: 93 nM and 50 nM
SARS-CoV-2 [2]; read-out: EC50 by CPE analysis
  EC50: 80 nM
SARS-CoV-2 [3]
  inhibition of SARS-CoV-2 infection: could inhibit SARS-CoV-2 infection
SARS-CoV-2 spike protein
  binding of SARS-CoV-2 spike protein to transferrin receptor: strong binding capacity
